Experimental data: patent publication US9695155B2, “Herbicidal substituted pyrimidinyloxy benzene compounds” (E. I. DU PONT DE NEMOURS AND COMPANY, priority 2013, dated 2017)

Assays:
[1] = tested on: canarygrass; test: Test D preemergence; format: in vivo, Phalaris minor
Outline: (§1)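 Seeds sown in silt loam soil got preemergence sprays; plants in peat/vermiculite potting medium were sprayed postemergence at 2–18 cm (1- to 4-leaf stage). Chemicals were formulated in a non-phytotoxic solvent mixture with surfactant. After 7 to 21 days in a controlled environment, injury was rated visually versus controls, 0 (no effect) to 100 (complete control).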

[2] = tested on: chickweed; test: Test D preemergence; format: in vivo, Stellaria media
Outline: as §1

[3] = tested on: galium; test: Test D preemergence; format: in vivo, Galium aparine
Outline: as §1

[4] = tested on: green foxtail; test: Test D preemergence; format: in vivo, Setaria viridis
Outline: as §1

[5] = tested on: Italian ryegrass; test: Test D preemergence; format: in vivo, Lolium multiflorum
Outline: as §1

[6] = tested on: kochia; test: Test D preemergence; format: in vivo, Kochia scoparia
Outline: as §1

[7] = tested on: chamomile; test: Test D preemergence; format: in vivo, Matricaria inodora
Outline: as §1

[8] = tested on: green foxtail; test: Test D postemergence; format: in vivo, Setaria viridis
Outline: as §1

[9] = tested on: speedwell; test: Test D postemergence; format: in vivo, Veronica persica
Outline: as §1

[10] = tested on: spring barley; test: Test D postemergence; format: in vivo, Hordeum vulgare
Outline: as §1

[11] = tested on: winter barley; test: Test D postemergence; format: in vivo, Hordeum vulgare
Outline: as §1

[12] = tested on: wild radish; test: Test D postemergence; format: in vivo, Raphanus raphanistrum
Outline: as §1

[13] = 16 g ai/ha, scale 0 (no effect) to 100 (complete control)
[14] = 31 g ai/ha, scale 0 to 100 (0 no effect, 100 complete control)
[15] = 62 g ai/ha, scale 0 to 100 (0 no effect, 100 complete control)
[16] = 125 g ai/ha, scale 0 to 100 (0 no effect, 100 complete control)
[17] = Postemergence, 62 g ai/ha, scale 0 to 100 (0 no effect, 100 complete control)
[18] = Postemergence, 31 g ai/ha, scale 0 to 100 (0 no effect, 100 complete control)
[19] = Postemergence, 125 g ai/ha, scale 0 to 100 (0 no effect, 100 complete control)
[20] = postemergence, 16 g ai/ha, scale 0 to 100, 0 no effect, 100 complete control

FCc1cccc(Oc2ncc(Cl)cn2)c1-n1cc(I)cn1 [Compound 245]
Plant response rating, Canarygrass [1, 13]: 0
Plant response rating, Canarygrass ([1]; 31 g ai/ha, scale 0-100): 0
Plant response rating, Canarygrass ([1]; 62 g ai/ha, scale 0-100): 15
Plant response rating, Canarygrass ([1]; 125 g ai/ha, scale 0-100): 35
Plant response rating, Chickweed [2, 13]: 55
Plant response rating, Chickweed ([2]; 31 g ai/ha, scale 0-100): 85
Plant response rating, Chickweed ([2]; 62 g ai/ha, scale 0-100): 100
Plant response rating, Chickweed ([2]; 125 g ai/ha, scale 0-100): 100
Plant response rating, Galium [3, 13]: 0
Plant response rating, Galium ([3]; 31 g ai/ha, scale 0-100): 0
Plant response rating, Galium ([3]; 62 g ai/ha, scale 0-100): 5
Plant response rating, Galium ([3]; 125 g ai/ha, scale 0-100): 85
Plant response rating, Foxtail, Green [4, 13]: 0
Plant response rating, Foxtail, Green ([4]; 31 g ai/ha, scale 0-100): 0
Plant response rating, Foxtail, Green ([4]; 62 g ai/ha, scale 0-100): 0
Plant response rating, Foxtail, Green ([4]; 125 g ai/ha, scale 0-100): 35
Plant response rating, Ryegrass, Italian [5, 13]: 15
Plant response rating, Ryegrass, Italian ([5]; 31 g ai/ha, scale 0 (no effect) to 100 (complete control)): 15
Plant response rating, Ryegrass, Italian ([5]; 125 g ai/ha, scale 0-100): 40
Plant response rating, Kochia [6, 13]: 0
Plant response rating, Kochia ([6]; 31 g ai/ha, scale 0-100): 0
Plant response rating, Kochia ([6]; 62 g ai/ha, scale 0-100): 75
Plant response rating, Kochia ([6]; 125 g ai/ha, scale 0-100): 75
Plant response rating, Chamomile [7, 13]: 25
Plant response rating, Chamomile ([7]; 31 g ai/ha, scale 0-100): 30
Plant response rating, Chamomile ([7]; 62 g ai/ha, scale 0-100): 55
Plant response rating, Chamomile ([7]; 125 g ai/ha, scale 0-100): 100
Plant response rating, Foxtail, Green ([8]; 16 g ai/ha, scale 0-100): 10
Plant response rating, Foxtail, Green [8, 14]: 20
Plant response rating, Foxtail, Green [8, 15]: 35
Plant response rating, Foxtail, Green [8, 16]: 45
Plant response rating, Speedwell ([9]; 16 g ai/ha, scale 0-100): 100
Plant response rating, Speedwell [9, 14]: 100
Plant response rating, Speedwell [9, 15]: 100
Plant response rating, Speedwell [9, 16]: 100
Plant response rating, Barley, Spring [10, 17]: 20
Plant response rating, Barley, Spring [10, 18]: 20
Plant response rating, Barley, Spring [10, 19]: 30
Plant response rating, Barley, Spring [10, 20]: 10
Plant response rating, Barley, Winter [11, 17]: 20
Plant response rating, Barley, Winter [11, 18]: 15
Plant response rating, Barley, Winter [11, 19]: 20
Plant response rating, Barley, Winter [11, 20]: 25
Plant response rating, Radish, Wild ([12]; 16 g ai/ha, scale 0-100): 35
Plant response rating, Radish, Wild [12, 14]: 45
Plant response rating, Radish, Wild [12, 15]: 55
Plant response rating, Radish, Wild [12, 16]: 85
